Experimental data from ChEMBL document CHEMBL4152351, “Isoxazolo[3,4-d]pyridazinones positively modulate the metabotropic glutamate subtypes 2 and 4” (Bioorg Med Chem, 2018).

How the values were obtained:
[1] = molecular target: Metabotropic glutamate receptor 5 (Homo sapiens, UniProt P41594); experiment: Displacement of MPEP from mGluR5 (unknown origin) after 3 hrs by liquid scintillation counting method
[2] = molecular target: Glutamate [NMDA] receptor; experiment: Displacement of [3H]MK-801 from NMDA receptor (unknown origin) after 3 hrs by liquid scintillation counting method; format: protein-complex assay, Homo sapiens
[3] = molecular target: Metabotropic glutamate receptor 2 (Homo sapiens) (UniProt Q14416); experiment: Antagonist activity at Gi-coupled mGluR2 (unknown origin) expressed in CHO cells assessed as decrease in glutamate-induced inhibition of forskolin-stimulated cAMP accumulation after 1 hr by glosensor based luciferase reporter gene assay relative to control; format: functional, cell-based; design: concentration or dose not given beside the values; conditions: concentration not given here
Metabotropic glutamate receptor 2 (Homo sapiens), sequence (Q14416 19-872 limits assumed): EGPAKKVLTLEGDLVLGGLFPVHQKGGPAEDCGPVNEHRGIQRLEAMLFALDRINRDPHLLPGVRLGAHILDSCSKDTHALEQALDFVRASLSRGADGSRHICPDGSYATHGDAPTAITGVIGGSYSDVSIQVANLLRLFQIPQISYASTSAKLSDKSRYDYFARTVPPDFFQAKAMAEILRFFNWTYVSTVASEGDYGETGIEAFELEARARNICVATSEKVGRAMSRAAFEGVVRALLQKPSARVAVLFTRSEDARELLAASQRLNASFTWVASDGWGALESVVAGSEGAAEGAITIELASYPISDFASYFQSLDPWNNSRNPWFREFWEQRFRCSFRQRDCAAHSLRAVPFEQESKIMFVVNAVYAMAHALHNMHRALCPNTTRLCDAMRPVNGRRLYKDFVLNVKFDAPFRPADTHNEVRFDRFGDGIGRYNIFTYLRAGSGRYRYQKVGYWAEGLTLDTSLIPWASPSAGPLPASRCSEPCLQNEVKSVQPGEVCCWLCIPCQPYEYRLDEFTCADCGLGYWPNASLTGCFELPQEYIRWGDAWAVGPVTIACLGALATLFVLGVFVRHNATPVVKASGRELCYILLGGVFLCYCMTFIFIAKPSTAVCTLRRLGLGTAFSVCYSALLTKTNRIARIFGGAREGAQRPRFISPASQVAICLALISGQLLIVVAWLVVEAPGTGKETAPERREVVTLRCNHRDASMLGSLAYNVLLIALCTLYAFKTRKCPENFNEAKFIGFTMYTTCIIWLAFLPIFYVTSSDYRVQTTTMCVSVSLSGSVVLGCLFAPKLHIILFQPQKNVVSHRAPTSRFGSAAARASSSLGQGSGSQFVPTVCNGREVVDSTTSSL

[4] = molecular target: Metabotropic glutamate receptor 4 (Homo sapiens) (UniProt Q14833); experiment: Antagonist activity at Gi-coupled mGluR4 (unknown origin) expressed in CHO cells assessed as decrease in glutamate-induced inhibition of forskolin-stimulated cAMP accumulation after 1 hr by glosensor based luciferase reporter gene assay relative to control; format: functional, cell-based; design: concentration or dose not given beside the values; conditions: concentration not given here
Metabotropic glutamate receptor 4 (Homo sapiens), sequence (Q14833 whole entry): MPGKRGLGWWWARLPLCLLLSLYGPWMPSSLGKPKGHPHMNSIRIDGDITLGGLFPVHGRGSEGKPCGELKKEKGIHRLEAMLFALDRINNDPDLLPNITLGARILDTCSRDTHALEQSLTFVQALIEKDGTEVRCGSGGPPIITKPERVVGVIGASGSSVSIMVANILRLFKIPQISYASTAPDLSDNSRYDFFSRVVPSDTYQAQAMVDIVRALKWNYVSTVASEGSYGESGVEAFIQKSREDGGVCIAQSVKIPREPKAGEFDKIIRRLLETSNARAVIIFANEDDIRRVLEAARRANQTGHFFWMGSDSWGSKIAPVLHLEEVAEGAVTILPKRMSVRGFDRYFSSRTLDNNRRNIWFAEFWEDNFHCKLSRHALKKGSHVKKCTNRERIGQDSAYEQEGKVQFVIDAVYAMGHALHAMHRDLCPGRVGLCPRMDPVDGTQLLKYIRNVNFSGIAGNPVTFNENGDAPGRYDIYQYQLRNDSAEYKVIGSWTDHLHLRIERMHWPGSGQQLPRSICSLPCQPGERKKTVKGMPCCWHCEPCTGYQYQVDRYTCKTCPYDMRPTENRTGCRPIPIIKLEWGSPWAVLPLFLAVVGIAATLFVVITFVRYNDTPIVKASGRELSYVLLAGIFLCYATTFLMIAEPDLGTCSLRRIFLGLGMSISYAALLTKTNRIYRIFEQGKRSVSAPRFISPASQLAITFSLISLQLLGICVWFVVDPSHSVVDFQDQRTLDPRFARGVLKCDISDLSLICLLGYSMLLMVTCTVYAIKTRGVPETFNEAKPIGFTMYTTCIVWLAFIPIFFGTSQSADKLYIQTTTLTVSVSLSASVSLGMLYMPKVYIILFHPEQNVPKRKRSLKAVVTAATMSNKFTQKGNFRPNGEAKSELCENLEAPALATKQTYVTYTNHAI

Homo sapiens = species on record: Homo sapiens; experiment: Displacement of muscimol from GABA-A receptor (unknown origin) after 90 mins by liquid scintillation counting method; design: concentration or dose not given beside the values

Metabotropic glutamate receptor 5, sequence (P41594 whole entry): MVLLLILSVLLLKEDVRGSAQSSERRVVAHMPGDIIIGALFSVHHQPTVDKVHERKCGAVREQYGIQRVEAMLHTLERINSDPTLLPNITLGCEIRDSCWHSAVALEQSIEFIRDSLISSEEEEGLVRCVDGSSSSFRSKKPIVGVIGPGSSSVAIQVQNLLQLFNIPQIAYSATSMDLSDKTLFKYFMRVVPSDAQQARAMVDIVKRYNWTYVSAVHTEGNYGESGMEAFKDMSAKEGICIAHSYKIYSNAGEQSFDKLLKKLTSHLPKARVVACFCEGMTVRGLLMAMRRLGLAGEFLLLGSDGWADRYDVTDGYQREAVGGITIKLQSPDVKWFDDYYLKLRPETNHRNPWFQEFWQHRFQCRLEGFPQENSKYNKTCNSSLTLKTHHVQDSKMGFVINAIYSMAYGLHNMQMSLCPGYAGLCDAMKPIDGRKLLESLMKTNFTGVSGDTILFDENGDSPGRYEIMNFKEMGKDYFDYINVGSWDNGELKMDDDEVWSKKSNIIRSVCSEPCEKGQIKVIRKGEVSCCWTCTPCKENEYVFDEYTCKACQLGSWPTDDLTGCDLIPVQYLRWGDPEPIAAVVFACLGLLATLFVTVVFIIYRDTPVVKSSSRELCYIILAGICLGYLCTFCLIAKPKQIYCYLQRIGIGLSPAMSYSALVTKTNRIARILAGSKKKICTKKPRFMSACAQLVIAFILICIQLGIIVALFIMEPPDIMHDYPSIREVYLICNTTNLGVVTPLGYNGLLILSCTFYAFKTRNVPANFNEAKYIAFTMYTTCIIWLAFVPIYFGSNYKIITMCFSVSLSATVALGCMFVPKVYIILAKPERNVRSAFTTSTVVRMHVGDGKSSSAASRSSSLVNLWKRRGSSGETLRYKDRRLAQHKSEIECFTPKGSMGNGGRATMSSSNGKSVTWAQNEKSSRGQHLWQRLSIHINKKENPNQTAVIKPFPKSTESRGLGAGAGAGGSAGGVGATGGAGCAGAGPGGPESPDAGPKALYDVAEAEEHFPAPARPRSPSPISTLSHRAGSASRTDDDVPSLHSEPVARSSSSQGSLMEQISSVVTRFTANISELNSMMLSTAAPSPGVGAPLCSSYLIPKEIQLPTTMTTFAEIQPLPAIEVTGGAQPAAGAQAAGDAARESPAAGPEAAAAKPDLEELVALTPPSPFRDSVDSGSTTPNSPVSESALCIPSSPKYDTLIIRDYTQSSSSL

Row | Ki [1] [µM] | Ki [2] [µM] | inhibition [3] [%] | inhibition [4] [%] | inhibition (Homo sapiens) [%] | SMILES
1 | > 10 | > 10 | 48 | -10 |  | Cc1nn(-c2cccc([N+](=O)[O-])c2)c(=O)c2nocc12
2 | 0.033 |  |  |  |  | CN1CC(=O)N=C1NC(=O)Nc1cccc(Cl)c1 [FENOBAM ANHYDROUS]
3 | > 10 | > 10 |  | -7 | -10 | Cc1nn(-c2ccc(F)cc2F)c(=O)c2nocc12
4 |  | > 10 | 0 | 11 | -7.2 | Cc1nn(-c2cc(C(F)(F)F)cc(C(F)(F)F)c2)c(=O)c2nocc12
5 | > 10 | > 10 |  | 9 |  | COc1ccc(-n2nc(C)c3conc3c2=O)cc1
6 | 3.08 | > 10 | 11 | -6 | -7.8 | Cc1nn(-c2cc(Cl)cc(Cl)c2)c(=O)c2nocc12
7 | > 10 | > 10 |  | -5 | -6 | Cc1nn(-c2ccccc2)c(=O)c2nocc12
8 | > 10 | > 10 | 5 | -3 | -4.7 | Cc1nn(-c2ccc([N+](=O)[O-])cc2)c(=O)c2nocc12
9 | > 10 | > 10 | 23 | 3 | -6 | Cc1nn(-c2ccc(F)cc2)c(=O)c2nocc12
10 | 1.88 | > 10 |  | -9 |  | Cc1ccc(-n2nc(C)c3conc3c2=O)cc1
